Measured values from patent US9018414B2, “Substituted 3-phenylpropionic acids and the use thereof” (Bayer Intellectual Property GmbH, priority 2009, dated 2015).

Assays:
[1] = target: T1, haem-containing recombinant soluble guanylate cyclase (sGC) (Rattus norvegicus, UniProt P20595); assay: Stimulation of recombinant soluble guanylate cyclase (sGC) in vitro, haem-containing enzyme; format: biochemical
T1 construct: made in house; host or cells: Sf9 insect cells (baculovirus)
T1 sequence (P20595 1-619): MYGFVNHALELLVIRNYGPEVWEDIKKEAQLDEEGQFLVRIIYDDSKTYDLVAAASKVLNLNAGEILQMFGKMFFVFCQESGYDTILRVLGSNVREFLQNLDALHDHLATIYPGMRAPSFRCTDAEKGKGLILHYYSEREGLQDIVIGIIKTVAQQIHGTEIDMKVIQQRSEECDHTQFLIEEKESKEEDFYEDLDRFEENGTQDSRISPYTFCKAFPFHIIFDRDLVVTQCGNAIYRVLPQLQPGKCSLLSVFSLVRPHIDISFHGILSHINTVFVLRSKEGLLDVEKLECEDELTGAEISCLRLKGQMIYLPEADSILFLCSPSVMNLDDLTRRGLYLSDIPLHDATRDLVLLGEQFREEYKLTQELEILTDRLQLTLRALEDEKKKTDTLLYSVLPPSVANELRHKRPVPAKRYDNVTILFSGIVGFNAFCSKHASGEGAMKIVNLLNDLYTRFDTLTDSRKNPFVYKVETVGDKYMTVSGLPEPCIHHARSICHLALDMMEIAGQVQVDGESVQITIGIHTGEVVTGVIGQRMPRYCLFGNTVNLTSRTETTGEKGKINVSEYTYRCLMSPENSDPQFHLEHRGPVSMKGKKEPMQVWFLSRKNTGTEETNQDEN
T1 sequence (P19686 1-690 partner): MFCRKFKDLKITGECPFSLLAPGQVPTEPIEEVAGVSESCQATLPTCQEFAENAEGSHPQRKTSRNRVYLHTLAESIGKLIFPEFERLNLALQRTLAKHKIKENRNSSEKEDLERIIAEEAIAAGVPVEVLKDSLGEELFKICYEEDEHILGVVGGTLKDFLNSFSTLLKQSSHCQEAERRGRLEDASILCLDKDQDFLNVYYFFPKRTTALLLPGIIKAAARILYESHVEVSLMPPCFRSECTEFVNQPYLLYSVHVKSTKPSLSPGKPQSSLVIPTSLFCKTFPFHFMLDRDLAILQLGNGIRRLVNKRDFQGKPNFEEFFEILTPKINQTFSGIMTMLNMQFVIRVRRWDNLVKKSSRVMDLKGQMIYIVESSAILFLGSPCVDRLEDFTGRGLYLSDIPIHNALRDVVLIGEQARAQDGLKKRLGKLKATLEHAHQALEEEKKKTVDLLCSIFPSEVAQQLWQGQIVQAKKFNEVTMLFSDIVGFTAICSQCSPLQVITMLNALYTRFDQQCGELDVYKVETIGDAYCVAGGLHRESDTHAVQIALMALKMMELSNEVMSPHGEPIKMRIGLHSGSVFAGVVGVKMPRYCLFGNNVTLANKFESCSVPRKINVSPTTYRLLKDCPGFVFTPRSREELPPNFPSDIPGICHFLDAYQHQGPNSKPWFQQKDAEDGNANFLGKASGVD
Protocol: (§1) Investigations on the stimulation of recombinant soluble guanylate cyclase (sGC) by the compounds according to the invention with and without sodium nitroprusside, and with and without the haem-dependent sGC inhibitor 1H-1,2,4-oxadiazolo-(4,3a)-quinoxalin-1-one (ODQ) are carried out by the method described in detail in the following reference: M. Hoenicka, E. M. Becker, H. Apeler, T. Sirichoke, H. Schroeder, R. Gerzer and J.-P. Stasch, “Purified soluble guanylyl cyclase expressed in a baculovirus/Sf9 system: Stimulation by YC-1, nitric oxide, and […]”, J. Mol. Med. 77 (1999), 14-23. The haem-free guanylate cyclase is obtained by adding Tween 20 to the sample buffer (0.5% in the final concentration).
(§2) The activation of sGC by a test substance is reported as x-fold stimulation of the basal activity.

[2] = target: T2, haem-free recombinant soluble guanylate cyclase (sGC) (Rattus norvegicus, UniProt P20595); assay: Stimulation of recombinant soluble guanylate cyclase (sGC) in vitro, haem-free enzyme; format: biochemical
T2 construct: made in house; host or cells: Sf9 insect cells (baculovirus)
T2 sequence (P20595 1-619): T1 sequence (P20595 1-619)
T2 sequence (P19686 1-690 partner): T1 sequence (P19686 1-690 partner)
Protocol: as §1, §2

[3] = tested on: recombinant guanylate cyclase reporter cell line; assay: Action at recombinant guanylate cyclase reporter cell line (CHO reporter cell); format: cell-based; settings: MEC = minimal effective concentration; read-out: sGC-activating activity in the CHO reporter cell in vitro, MEC
Protocol: The cellular action of the compounds according to the invention is determined at a recombinant guanylate cyclase reporter cell line, as described in F. Wunder et al., Anal. Biochem. 339, 104-112 (2005).

[4] = target: T3, soluble guanylate cyclase (sGC) (Rattus norvegicus, UniProt P20595); assay: Stimulation of sGC enzyme activity (PPi detection, luciferase luminescence); format: biochemical
T3 construct: made in house; host or cells: Sf9 insect cells (baculovirus)
T3 sequence (P20595 1-619): T1 sequence (P20595 1-619)
T3 sequence (P19686 1-690 partner): T1 sequence (P19686 1-690 partner)
Protocol: Soluble guanylate cyclase (sGC) converts on stimulation GTP into cGMP and pyrophosphate (PPi). PPi is detected with the aid of the assay described below. The signal produced in the assay increases as the reaction progresses and serves as a measure of the sGC enzyme activity under the given stimulation.
To carry out the assay, 29 μl of enzyme solution [0-10 nM soluble guanylate cyclase (prepared according to Hönicka et al., J. Mol. Med. 77, 14-23 (1999)) in 50 mM TEA, 2 mM MgCl2, 0.1% BSA (fraction V), 0.005% Brij®, pH 7.5] are initially introduced into a microplate, and 1 μl of the substance to be tested (as a serially diluted solution in DMSO) is added. The mixture is incubated at room temperature for 10 min. Then 20 μl of detection mix [1.2 nM Firefly Luciferase (Photinus pyralis luciferase, Promega), 29 μM dehydroluciferin (prepared according to Bitler & McElroy, Arch. Biochem. Biophys. 72, 358 (1957)), 122 μM luciferin (Promega), 153 μM ATP (Sigma) and 0.4 mM DTT (Sigma) in 50 mM TEA, 2 mM MgCl2, 0.1% BSA (fraction V), 0.005% Brij®, pH 7.5] are added. The enzyme reaction is started by adding 20 μl of substrate solution [1.25 mM guanosine 5′-triphosphate (Sigma) in 50 mM TEA, 2 mM MgCl2, 0.1% BSA (fraction V), 0.005% Brij®, pH 7.5] and measured continuously in a luminometer. The extent of the stimulation by the substance to be tested can be determined relative to the signal of the unstimulated reaction.
The activation of haem-free guanylate cyclase is examined by addition of 25 μM of 1H-1,2,4-oxadiazolo[4,3-a]quinoxalin-1-one (ODQ) to the enzyme solution and subsequent incubation for 30 minutes, and compared to the stimulation of the native enzyme.

C[C@H]([C@H](C(=O)Nc1cc(C[C@H](C)C(=O)O)ccc1Cl)c1ccc(Cl)cc1)C(F)(F)F [Example 17, (+)-(2S)-3-(4-Chloro-3-{[(2S,3R)-2-(4-chlorophenyl)-4,4,4-trifluoro-3-methylbutanoyl]amino}-phenyl)-2-methylpropanoic acid]
Stimulation (x-fold) of recombinant sGC, haem-containing sGC, +0.01 μM DEA/NO ([1]; 0.01 μM test compound): 9.6 ± 0.8 x-fold | Stimulation (x-fold) of recombinant sGC, haem-containing sGC, +10 μM ODQ ([1]; 0.01 μM test compound): 4.9 ± 1.2 x-fold | Stimulation (x-fold) of recombinant sGC, haem-containing sGC, basal ([1]; 0.01 μM test compound): 0.7 ± 0.2 x-fold | Stimulation (x-fold) of recombinant sGC, haem-containing sGC, +0.01 μM DEA/NO ([1]; 0.1 μM test compound): 8.8 ± 1.2 x-fold | Stimulation (x-fold) of recombinant sGC, haem-containing sGC, +10 μM ODQ ([1]; 0.1 μM test compound): 5.3 ± 1.3 x-fold | Stimulation (x-fold) of recombinant sGC, haem-containing sGC, basal ([1]; 0.1 μM test compound): 0.6 ± 0.1 x-fold | Stimulation (x-fold) of recombinant sGC, haem-containing sGC, +0.01 μM DEA/NO ([1]; 1.0 μM test compound): 9.8 ± 1.2 x-fold | Stimulation (x-fold) of recombinant sGC, haem-containing sGC, +10 μM ODQ ([1]; 1.0 μM test compound): 4.5 ± 1.1 x-fold | Stimulation (x-fold) of recombinant sGC, haem-containing sGC, basal ([1]; 1.0 μM test compound): 0.6 ± 0.1 x-fold | Stimulation (x-fold) of recombinant sGC, haem-containing sGC, +0.01 μM DEA/NO ([1]; 10 μM test compound): 10.7 ± 1.0 x-fold | Stimulation (x-fold) of recombinant sGC, haem-containing sGC, +10 μM ODQ ([1]; 10 μM test compound): 8.3 ± 1.4 x-fold | Stimulation (x-fold) of recombinant sGC, haem-containing sGC, basal ([1]; 10 μM test compound): 1.8 ± 0.3 x-fold | Stimulation (x-fold) of recombinant sGC, haem-containing sGC, +0.01 μM DEA/NO ([1]; 100 μM test compound): 11.4 ± 1.2 x-fold | Stimulation (x-fold) of recombinant sGC, haem-containing sGC, +10 μM ODQ ([1]; 100 μM test compound): 15.0 ± 2.0 x-fold | Stimulation (x-fold) of recombinant sGC, haem-containing sGC, basal ([1]; 100 μM test compound): 4.9 ± 0.7 x-fold | Effect of combination with the NO donor DEA/NO on sGC stimulation ([1]; combination with DEA/NO, haem-containing sGC): no synergistic effect | Stimulation (x-fold) of recombinant sGC, haem-free sGC, basal ([2]; 0.01 μM test compound): 1.7 ± 0.2 x-fold | Stimulation (x-fold) of recombinant sGC, haem-free sGC, basal ([2]; 0.1 μM test compound): 2.0 ± 0.3 x-fold | Stimulation (x-fold) of recombinant sGC, haem-free sGC, basal ([2]; 1.0 μM test compound): 4.1 ± 0.3 x-fold | Stimulation (x-fold) of recombinant sGC, haem-free sGC, basal ([2]; 10 μM test compound): 22.9 ± 1.8 x-fold | Stimulation (x-fold) of recombinant sGC, haem-free sGC, basal ([2]; 100 μM test compound): 33.5 ± 3.3 x-fold | minimal effective concentration [3]: 0.0048 µM | EC50 ([4]; EC50 = concentration at 50% of maximum efficacy, read-out: Activating action at the sGC enzyme in vitro, EC50): 130 nM | Activating action at the sGC enzyme in vitro, MEC ([4]; MEC = minimal effective concentration): 7 nM
